We go through ten compounds from patent US7977325B2, “3-amino-pyrazolo[3,4b]pyridines as inhibitors of protein tyrosine kinases, their production and use as pharmaceutical agents” (Bayer Schering Pharma AG, priority 2004, dated 2011).

This assay concerns the target T1, recombinant EphB4 kinase (Homo sapiens, UniProt P54760).
T1 construct: purchased ProQinase GmbH, Freiburg, Germany
T1 sequence (P54760 16-987): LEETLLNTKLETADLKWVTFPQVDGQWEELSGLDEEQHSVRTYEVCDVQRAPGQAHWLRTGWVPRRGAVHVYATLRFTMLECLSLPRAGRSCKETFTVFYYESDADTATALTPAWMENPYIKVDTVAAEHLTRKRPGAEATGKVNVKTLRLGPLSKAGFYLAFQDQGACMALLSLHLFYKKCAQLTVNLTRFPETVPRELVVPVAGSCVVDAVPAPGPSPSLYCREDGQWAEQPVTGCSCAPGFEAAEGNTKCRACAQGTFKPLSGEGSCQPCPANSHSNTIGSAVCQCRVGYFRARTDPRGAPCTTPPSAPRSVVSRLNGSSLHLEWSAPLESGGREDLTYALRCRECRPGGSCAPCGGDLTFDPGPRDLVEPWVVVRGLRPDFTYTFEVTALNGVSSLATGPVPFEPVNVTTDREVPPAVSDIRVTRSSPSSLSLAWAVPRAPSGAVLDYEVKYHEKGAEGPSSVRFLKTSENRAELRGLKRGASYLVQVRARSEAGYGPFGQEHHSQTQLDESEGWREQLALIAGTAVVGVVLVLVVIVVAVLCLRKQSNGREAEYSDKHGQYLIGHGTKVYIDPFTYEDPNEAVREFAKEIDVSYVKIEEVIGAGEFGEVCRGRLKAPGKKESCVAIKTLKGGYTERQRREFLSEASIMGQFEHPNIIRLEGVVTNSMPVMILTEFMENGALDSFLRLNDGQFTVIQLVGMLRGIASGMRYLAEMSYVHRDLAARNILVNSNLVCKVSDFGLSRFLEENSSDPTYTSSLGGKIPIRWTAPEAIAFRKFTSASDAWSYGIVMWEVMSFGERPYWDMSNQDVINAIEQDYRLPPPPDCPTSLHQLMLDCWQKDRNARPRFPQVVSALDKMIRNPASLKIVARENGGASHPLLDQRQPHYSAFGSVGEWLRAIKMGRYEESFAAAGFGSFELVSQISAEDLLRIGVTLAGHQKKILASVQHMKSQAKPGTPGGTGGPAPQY
The assay is described as follows: Test System for EphB4 (HTRF kinase assay). The class given is biochemical. The note with it: polyGluAlaTyr substrate, 2 μmol of ATP. Here is the method: A mixture that consists of 20 ng/ml of recombinant EphB4 kinase (related to ProQinase GmbH, Freiburg, Germany), 2.67 μg/ml of polyGluAlaTyr, 2 μmol of ATP, 25 mmol of HEPES (pH 7.3), 5 mmol of MgCl2, 1 mmol of MnCl2, 2 mmol of DTT, 0.1 mmol of NaVO4, 1% (v/v) glycerol, 0.02% NP40, EDTA-free protease inhibitors (Complete Fa. [Company] Roche, 1 tablet in 50 ml) is incubated at 20° C. for 10 minutes. Test substances are dissolved in 100% DMSO and introduced in 0.017× volume before the beginning of the reaction. 60 minutes after the addition of 1.7× volume of a solution of 50 mmol of Hepes, pH 7.0, 0.2% BSA, 0.14 μg/ml of PT66-europium, 3.84 μg/ml of SA-XL665, and 75 mmol of EDTA, the batch is measured in a Discovery HTRF-measuring device of the PerkinElmer Company.

[1] abbreviates: read-out: IC50 of EphB4 kinase inhibition (stated as upper bound).

Where two headings read alike, the source gives them in different places.

Broadly, the IC50 is the point on the concentration scale where inhibition reaches its midpoint. As for `Cc1ccc(-c2cc(C3CCC(N4CCCCC4)CC3)nc3[nH]nc(N)c23)cc1` (centres unmarked) [Example 16, 6-(4-Piperidin-1-yl-cyclohexyl)-4-p-tolyl-1H-pyrazolo[3,4b]pyridin-3-ylamine], the IC50 under setting [1] was < 10 µM. With `COc1cccc(-c2cc(C(C)(C)C)nc3[nH]nc(N)c23)c1` [Example 6, 6-tert-Butyl-4-(3-methoxyphenyl)-1H-pyrazolo[3,4b]pyridin-3-ylamine], the IC50 is 6.1 µM (read-out: IC50 of EphB4 kinase inhibition) and < 10 µM under setting [1]. Regarding `COc1cc(O)cc(-c2cc(-c3ccncc3)nc3[nH]nc(N)c23)c1` [Example 33, 3-(3-Amino-6-pyridin-4-yl-1H-pyrazolo[3,4-b]pyridin-4-yl)-5-methoxyphenol], the concentration for half-maximal inhibition (IC50) under setting [1] was < 10 µM.

On to `CC(C)(C)c1cc(-c2cc(O)ccc2[N+](=O)[O-])c2c(N)n[nH]c2n1` [Example 41, 3-(3-Amino-6-tert-butyl-1H-pyrazolo[3,4b]pyridin-4-yl)-4-nitro-phenol], for which the IC50 under setting [1] was < 10 µM.

As for `Cc1ccc(-c2cc(C3CCC(N4CCNCC4)CC3)nc3[nH]nc(N)c23)cc1` (centres unmarked) [Example 14, 6-(4-piperazin-1-yl-cyclohexyl)-4-p-tolyl-1H-pyrazolo[3,4b]pyridin-3-ylamine], the IC50 under setting [1] was < 10 µM. On the same count and under the same terms, the same measure for `Nc1n[nH]c2nc(C3CC3)cc(-c3ccc(Cl)c(Cl)c3)c12` [Example 51, 6-Cyclopropyl-4-(3,4-dichlorophenyl)-1H-pyrazolo[3,4-b]pyridin-3-ylamine]: < 10 µM. Same read-out and setting: the same measure for `Cc1ccc(O)cc1-c1cc(-c2ccncc2)nc2[nH]nc(N)c12` [Example 35, 3-(3-Amino-6-pyridin-4-yl-1H-pyrazolo[3,4-b]pyridin-4-yl)-4-methyl-phenol]: < 10 µM; for `Cc1ccc(-c2cc(C3CCC(=O)CC3)nc3[nH]nc(N)c23)cc1` [Example 12, 4-(3-Amino-4-p-tolyl-1H-pyrazolo[3,4b]pyridin-6-yl)-cyclohexanone]: < 10 µM; for `COc1cc(OC)cc(-c2cc(C(C)(C)C)nc3[nH]nc(N)c23)c1` [Example 39, 6-tert-Butyl-4-(3,5-dimethoxyphenyl)-1H-pyrazolo[3,4-b]pyridin-3-ylamine]: < 10 µM. The same measure, in the same setting: the same measure for `CC(C)Oc1cc(O)cc(-c2cc(C(C)(C)C)nc3[nH]nc(N)c23)c1` [Example 40]: < 10 µM.
